Data published in PubChem BioAssay (NCI).
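In this assay, cells in 96-well plates receive the compound at five concentrations for 48 hours. Endpoints are linearly interpolated between the surrounding concentrations. GI50 = concentration required for 50% inhibition of growth. TGI: concentration producing complete growth inhibition.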

Key:
Assay in all cases: NCI-60 cell line screen, 48 h
786-0 renal = tested on: 786-0 renal
A498 renal = tested on: A498 renal
A549 NSCLC = tested on: A549 NSCLC
ACHN renal = tested on: ACHN renal
BT-549 breast = tested on: BT-549 breast
CAKI-1 renal = tested on: CAKI-1 renal
CCRF-CEM leukemia = tested on: CCRF-CEM leukemia
COLO 205 colon = tested on: COLO 205 colon
DU-145 prostate = tested on: DU-145 prostate
EKVX NSCLC = tested on: EKVX NSCLC
HCC-2998 colon = tested on: HCC-2998 colon
HCT-116 colon = tested on: HCT-116 colon
HCT-15 colon = tested on: HCT-15 colon
HL-60(TB) leukemia = tested on: HL-60(TB) leukemia
HOP-62 NSCLC = tested on: HOP-62 NSCLC
HOP-92 NSCLC = tested on: HOP-92 NSCLC
HS 578T breast = tested on: HS 578T breast
HT29 colon = tested on: HT29 colon
IGROV1 ovarian = tested on: IGROV1 ovarian
K-562 leukemia = tested on: K-562 leukemia
KM12 colon = tested on: KM12 colon
LOX IMVI melanoma = tested on: LOX IMVI melanoma
M14 melanoma = tested on: M14 melanoma
MALME-3M melanoma = tested on: MALME-3M melanoma
MCF7 breast = tested on: MCF7 breast
MDA-MB-231 breast = tested on: MDA-MB-231 breast
MDA-MB-435 = tested on: MDA-MB-435
MOLT-4 leukemia = tested on: MOLT-4 leukemia
NCI-H226 lung = tested on: NCI-H226 lung
NCI-H23 lung = tested on: NCI-H23 lung
NCI-H460 lung = tested on: NCI-H460 lung
NCI-H522 lung = tested on: NCI-H522 lung
NCI/ADR-RES ovarian = tested on: NCI/ADR-RES ovarian
OVCAR-3 ovarian = tested on: OVCAR-3 ovarian
OVCAR-4 ovarian = tested on: OVCAR-4 ovarian
OVCAR-5 ovarian = tested on: OVCAR-5 ovarian
OVCAR-8 ovarian = tested on: OVCAR-8 ovarian
PC-3 prostate = tested on: PC-3 prostate
RPMI-8226 leukemia = tested on: RPMI-8226 leukemia
RXF 393 renal = tested on: RXF 393 renal
SF-268 CNS = tested on: SF-268 CNS
SF-295 CNS = tested on: SF-295 CNS
SF-539 CNS = tested on: SF-539 CNS
SK-MEL-2 melanoma = tested on: SK-MEL-2 melanoma
SK-MEL-28 melanoma = tested on: SK-MEL-28 melanoma
SK-MEL-5 melanoma = tested on: SK-MEL-5 melanoma
SK-OV-3 ovarian = tested on: SK-OV-3 ovarian
SN12C renal = tested on: SN12C renal
SNB-19 CNS = tested on: SNB-19 CNS
SNB-75 CNS = tested on: SNB-75 CNS
SR leukemia = tested on: SR leukemia
SW-620 colon = tested on: SW-620 colon
T-47D breast = tested on: T-47D breast
TK-10 renal = tested on: TK-10 renal
U251 CNS = tested on: U251 CNS
UACC-257 melanoma = tested on: UACC-257 melanoma
UACC-62 melanoma = tested on: UACC-62 melanoma
UO-31 renal = tested on: UO-31 renal

`Nc1nc2c(c3cnccc13)C(c1cccc(Br)c1)Cc1cnccc1-2` (stereo unspecified) was tested, and the GI50 (786-0 renal) was 482 nM, the TGI (786-0 renal) was 12600 nM and the GI50 (A498 renal) was 233 nM. The TGI (A498 renal) was 824 nM, the GI50 (A549 NSCLC) was 627 nM and the TGI (A549 NSCLC) was 13600 nM. The GI50 (ACHN renal) was 1100 nM, the TGI (ACHN renal) was 12500 nM and the GI50 (BT-549 breast) was 526 nM. The TGI (BT-549 breast) was 5480 nM, the GI50 (CAKI-1 renal) was 422 nM and the TGI (CAKI-1 renal) was 14400 nM. The GI50 (CCRF-CEM leukemia) was 373 nM, the TGI (CCRF-CEM leukemia) was 14100 nM and the GI50 (COLO 205 colon) was 273 nM. The TGI (COLO 205 colon) was 1070 nM, the GI50 (DU-145 prostate) was 344 nM and the TGI (DU-145 prostate) was 11300 nM. The GI50 (EKVX NSCLC) was 487 nM, the TGI (EKVX NSCLC) was 21500 nM and the GI50 (HCC-2998 colon) was 3620 nM. The TGI (HCC-2998 colon) was 18800 nM, the GI50 (HCT-116 colon) was 442 nM and the TGI (HCT-116 colon) was 11400 nM. The GI50 (HCT-15 colon) was 362 nM, the TGI (HCT-15 colon) was 10500 nM and the GI50 (HL-60(TB) leukemia) was 329 nM. It also gave a TGI (HL-60(TB) leukemia) of 961 nM, a GI50 (HOP-62 NSCLC) of 465 nM and a TGI (HOP-62 NSCLC) of 18900 nM. It also gave a GI50 (HOP-92 NSCLC) of 639 nM, a TGI (HOP-92 NSCLC) of 16700 nM and a GI50 (HS 578T breast) of 423 nM. For the same compound, the TGI (HS 578T breast) was 29200 nM, the GI50 (HT29 colon) was 341 nM and the TGI (HT29 colon) was 1790 nM. It also gave a GI50 (IGROV1 ovarian) of 850 nM, a TGI (IGROV1 ovarian) of 17800 nM and a GI50 (K-562 leukemia) of 346 nM. For the same compound, the TGI (K-562 leukemia) was 17400 nM, the GI50 (KM12 colon) was 436 nM and the TGI (KM12 colon) was 13600 nM. It also gave a GI50 (LOX IMVI melanoma) of 427 nM, a TGI (LOX IMVI melanoma) of 13700 nM and a GI50 (M14 melanoma) of 215 nM. It also gave a TGI (M14 melanoma) of 615 nM, a GI50 (MALME-3M melanoma) of 515 nM and a TGI (MALME-3M melanoma) of 18700 nM. It also gave a GI50 (MCF7 breast) of 324 nM, a TGI (MCF7 breast) of 12200 nM and a GI50 (MDA-MB-231 breast) of 1110 nM. It also gave a TGI (MDA-MB-231 breast) of 15700 nM, a GI50 (MDA-MB-435) of 154 nM and a TGI (MDA-MB-435) of 571 nM. It also gave a GI50 (MOLT-4 leukemia) of 418 nM, a TGI (MOLT-4 leukemia) of 12100 nM and a GI50 (NCI-H226 lung) of 949 nM. The TGI (NCI-H226 lung) was 18900 nM, the GI50 (NCI-H23 lung) was 635 nM and the TGI (NCI-H23 lung) was 14100 nM. The GI50 (NCI-H460 lung) was 370 nM, the TGI (NCI-H460 lung) was 11500 nM and the GI50 (NCI-H522 lung) was 214 nM. It also gave a TGI (NCI-H522 lung) of 620 nM, a GI50 (NCI/ADR-RES ovarian) of 323 nM and a TGI (NCI/ADR-RES ovarian) of 10200 nM. The GI50 (OVCAR-3 ovarian) was 339 nM, the TGI (OVCAR-3 ovarian) was 14100 nM and the GI50 (OVCAR-4 ovarian) was 1730 nM. For the same compound, the TGI (OVCAR-4 ovarian) was 34100 nM, the GI50 (OVCAR-5 ovarian) was 875 nM and the TGI (OVCAR-5 ovarian) was 21800 nM. The GI50 (OVCAR-8 ovarian) was 780 nM, the TGI (OVCAR-8 ovarian) was 44600 nM and the GI50 (PC-3 prostate) was 460 nM. The TGI (PC-3 prostate) was 14000 nM, the GI50 (RPMI-8226 leukemia) was 392 nM and the TGI (RPMI-8226 leukemia) was 12300 nM. For the same compound, the GI50 (RXF 393 renal) was 288 nM, the TGI (RXF 393 renal) was 953 nM and the GI50 (SF-268 CNS) was 852 nM. For the same compound, the TGI (SF-268 CNS) was 18300 nM, the GI50 (SF-295 CNS) was 271 nM and the TGI (SF-295 CNS) was 1950 nM. It also gave a GI50 (SF-539 CNS) of 235 nM, a TGI (SF-539 CNS) of 821 nM and a GI50 (SK-MEL-2 melanoma) of 303 nM. The TGI (SK-MEL-2 melanoma) was 1910 nM, the GI50 (SK-MEL-28 melanoma) was 3810 nM and the TGI (SK-MEL-28 melanoma) was 20300 nM. For the same compound, the GI50 (SK-MEL-5 melanoma) was 475 nM, the TGI (SK-MEL-5 melanoma) was 3450 nM and the GI50 (SK-OV-3 ovarian) was 586 nM. The TGI (SK-OV-3 ovarian) was 17100 nM, the GI50 (SN12C renal) was 877 nM and the TGI (SN12C renal) was 22900 nM. It also gave a GI50 (SNB-19 CNS) of 410 nM, a TGI (SNB-19 CNS) of 15200 nM and a GI50 (SNB-75 CNS) of 243 nM. For the same compound, the TGI (SNB-75 CNS) was 12700 nM, the GI50 (SR leukemia) was 243 nM and the TGI (SR leukemia) was over 100000 nM. For the same compound, the GI50 (SW-620 colon) was 420 nM, the TGI (SW-620 colon) was 17400 nM and the GI50 (T-47D breast) was 411 nM. It also gave a TGI (T-47D breast) of 40400 nM, a GI50 (TK-10 renal) of 613 nM and a TGI (TK-10 renal) of 13600 nM. The GI50 (U251 CNS) was 342 nM, the TGI (U251 CNS) was 2970 nM and the GI50 (UACC-257 melanoma) was 12100 nM. For the same compound, the TGI (UACC-257 melanoma) was 27000 nM, the GI50 (UACC-62 melanoma) was 406 nM and the TGI (UACC-62 melanoma) was 14200 nM. It also gave a GI50 (UO-31 renal) of 1200 nM and a TGI (UO-31 renal) of 15500 nM.
